# In patent US5912237A, “Method of synthesis of desulfated heparin and use thereof for inhibition of elastase and cathespin” (Carolinas HealthCare System, priority 1997, dated 1999):
# “And” between values parts separate entries of the source, which are not always exact repeats. Identical values can stand only once. “Also recorded” adds a separate entry of the source.
# Columns and labels:
# [1] = tested on: human polymorphonuclear leucocyte elastase (HLE); conditions: cited from earlier work
# cathepsin G = assay: Inhibition of cathepsin G, substrate Suc-Ala-Ala-Pro-Phe-pNA; type: biochemical; conditions: for Inhibition of cathepsin G, in words: I:E ratios of greater than 0.4
# Procedure: (§1) The inhibition of HLE by 2-O-desulfated heparin of Example III was measured by incubating a constant amount of HLE (100 pmol) with increasing amounts of 2-O-desulfated heparin ([…]) for 30 minutes at 25° C. in 500 microliters of Hepes buffer (0.125 M, 0.125% Triton-X-100, pH 7.5) diluted to the final volume of 900 microliters. The remaining enzyme activity was measured by adding 100 microliters of 3 mM N-Suc-Ala-Ala-Val-NA (Sigma Chemicals, St. Louis, Mo., made in dimethylsulfoxide [DMSO]) and reading the absorbance of the proteolytically released chromogen 4-Nitroaniline at 405 nm. The percentage of inhibition was calculated based on enzyme activity without inhibitor.
# The inhibition of cathepsin G by 2-O-desulfated heparin of Example III was measured as described above, except that the substrate was 3 mM Suc-Ala-Ala-Pro-Phe-pNA (Sigma Chemical, in DMSO).
# blood coagulation [2] = conditions: Rej et al. and Jaseja et al.; cited from earlier work
# [3] = tested on: human leukocyte elastase (HLE)-mediated lung injury; assay: HLE-mediated lung injury in hamsters, bronchoalveolar lavage; type: in vivo, golden Syrian hamsters; conditions: hamster; for PMN in bronchoalveolar lavage fluid / Protein in bronchoalveolar lavage fluid / Total Hemoglobin in bronchoalveolar lavage fluid: intratracheal 500 μg followed by HLE 100 μg, 24 hours
# Procedure: The ability of desulfated heparin to prevent human leukocyte elastase (HLE)-mediated lung injury was assessed in female golden Syrian hamsters (Harlan Industries, Indianapolis, Ind.) weighing 90 to 110 g. Phenobarbital-anesthetized hamsters were injected intratracheally with 0.25 ml sterile 0.9% saline (NS), 0.25 ml NS containing HLE (100 μg), or 0.25 ml NS containing 500 μg of heparin (Sigma) or 2-O-desulfated heparin according to Example III followed by 0.25 ml NS with HLE. Animals were killed by exsanguination 24 hours after treatment. The throat was opened and lungs dissected en bloc. The trachea was cannulated with polyethylene tubing and lavaged with five sequential aliquots of 3 ml NS. Lavage fluid was centrifuged at 200 Xg for 10 minutes. The resulting cell pellet was re-suspended in 1 ml Hank's balanced salt solution (HBSS) for performing cell count and differentials. The supernatant was assayed for protein and hemoglobin, as indices of acute injury.
# [4] = tested on: human leukocyte elastase (HLE); assay: HLE degradation of 3H-elastin; type: biochemical; conditions: substrate 3H-Elastin
# Procedure: Also, bovine ligament elastin was prepared according to B. C. Starcher, Anal. Biochem. (1976) 74:441-447. The elastin was assessed for purity by amino acid analysis. Its degradation was assayed using elastin radiolabeled with ^3 H-NaBH4, following the methods described in P. J. Stone, et al., Methods Enzymol. (1982) 82:588-605. The tritiated powdered elastin was homogenized and washed in phosphate buffered saline (PBS), pH 7.4 just before use to remove unincorporated radioactivity. A constant amount of human leukocyte elastase (HLE) (67 pmol) was pre-incubated with increasing amounts of 2-O-desulfated heparin (6.7-134 pmol) at 37° C. for 30 minutes in a final volume of 1.0 ml Hepes buffer (0.125 M, 0.125% Triton-X-100, pH 7.5). An aliquot of 900 microliters of each reaction mixture was incubated with 5 mg ^3 H-elastin and 100 microliters of 0.9% saline at 37° C. Solubilized peptides were separated from the elastin suspension by filtration through medium-porosity filter paper. The rate of degradation was determined by quantifying the solubilized ^3 H peptides.
# [5] = tested on: human leukocyte elastase (HLE); assay: Inhibition of HLE, chromogenic substrate N-Suc-Ala-Ala-Val-NA; type: biochemical; conditions: for Percent inhibition of HLE: substrate N-Suc-Ala-Ala-Val-NA
# Procedure: The inhibition of HLE by partially N-desulfated heparin of Example I was measured by incubating a constant amount of HLE (100 pmol) with increasing amounts of partially N-desulfated heparin (10-50 pmol, I:E ratio 0.1-0.5) for 30 minutes at 25° C. in 500 microliters of Hepes buffer (0.125 M, 0.125% Triton-X-100, pH 7.5) diluted to the final volume of 900 microliters. The remaining enzyme activity was measured by adding 100 microliters of 3 mM N-Suc-Ala-Ala-Val-NA (Sigma Chemicals, St. Louis, Mo., made in dimethylsulfoxide [DMSO]) and reading the absorbance of the proteolytically released chromogen 4-Nitroaniline at 405 nm. The percentage of inhibition was calculated based on enzyme activity without inhibitor.
# as §1
# factor Xa [6] = assay: Anti-factor Xa activity, plasma treated with Russell viper venom; type: biochemical; conditions: for Anti-factor Xa Activity (test time): control plasma 35 sec.
# Procedure: The 2-O-desulfated heparin from Example III was also studied to determine whether plasma dilutions of 0.1 mg/ml heparin or heparin, desulfated according to Example III, inhibited factor Xa, prolonging test time in an assay for Xa activity utilizing plasma treated with Russell viper venom.
# human test serum = assay: Activated partial thromboplastin time in vitro; type: biochemical; conditions: for Time to Clot Formation: control 35-45
# Procedure: The anti-coagulant potential of the desulfated heparin from Example III was studied by determining its effect on the activated partial thromboplastin time (APPT) in vitro. The test was performed in the usual fashion used to monitor the anti-coagulant effect of heparin clinically in patients. The test used 0.1 and 1.0 mg/ml heparin or heparin, 2-O-desulfated according to Example III, added to human test serum in vitro.
# rats = conditions: rat, in vivo, 10 mg/kg
# blood coagulation [7] = assay: USP anticoagulant activity
# From the text: (§2) Heparin modifications HM0500393 through HM0505293 were made from the same lot of porcine intestinal mucosal sodium heparin having 173.0 units/mg USP anticoagulant activity (USP method) and approximately 150 units/mg anti-Xa activity (by amidolytic assay using commercially available chromogenic peptide substrate). Preparation of modifications began with dissolution of 50 to 100 gm heparin to 5-10% concentration in deionized water, followed by addition of sodium borohydride.
# factor Xa [8] = assay: Anti-Xa activity, amidolytic assay with chromogenic peptide substrate; type: biochemical
# From the text: as §2
# [9] = plasma dilution 1:2 of 0.1 mg/ml
# [10] = plasma dilution 1:10 of 0.1 mg/ml
# [11] = plasma dilution 1:100 of 0.1 mg/ml
# [12] = plasma dilution 1:1000 of 0.1 mg/ml
# [13] = Conc. 0.1 mg/ml in human test serum
# [14] = Conc. 1.0 mg/ml in human test serum
substance,measurement,setting,value
dextran sulfate,"Inhibition of elastase, in words",[1],potent inhibitor of elastase
2-O-desulfated heparin [ODH],Percent inhibition of Cathepsin G,cathepsin G; I:E ratio 0.1:1,14%
same,Percent inhibition of Cathepsin G,cathepsin G; I:E ratio 0.2:1,54%
same,Percent inhibition of Cathepsin G,cathepsin G; I:E ratio 0.4:1,56%
same,Percent inhibition of Cathepsin G,cathepsin G; I:E ratio 0.8:1,69%
same,Percent inhibition of Cathepsin G,cathepsin G; I:E ratio 1.0:1,69%
same,Percent inhibition of Cathepsin G,cathepsin G; I:E ratio 2.0:1,67%
same,"Inhibition of cathepsin G, in words",cathepsin G,significant inhibition of cathepsin G
same,"Anticoagulant activity, in words",blood coagulation [2],minimal anticoagulant activity
same,"Inhibition of elastase induced injury in vivo, in words",[3],potent inhibitors of elastase induced injury in vivo
same,PMN in bronchoalveolar lavage fluid,[3],9.83 ×10^6 Cells
same,Protein in bronchoalveolar lavage fluid,[3],65.80 mg/mL
same,Total Hemoglobin in bronchoalveolar lavage fluid,[3],1.5 mg
same,Percent inhibition of HLE,[4]; I:E ratio 0.1:1,73%
same,Percent inhibition of HLE,[4]; I:E ratio 0.2:1,77%
same,Percent inhibition of HLE,[4]; I:E ratio 0.4:1,72%
same,Percent inhibition of HLE,[4]; I:E ratio 0.5:1,85%
same,Percent inhibition of HLE,[4]; I:E ratio 1.0:1,85%
same,Percent inhibition of HLE,[4]; I:E ratio 2.0:1,84%
same,"HLE inhibitory activity, in words",[5],significant inhibition of human leukocyte elastase
same,Percent inhibition of HLE,[5]; I:E ratio 0.1:1,20%
same,Percent inhibition of HLE,[5]; I:E ratio 0.2:1,74%
same,Percent inhibition of HLE,[5]; I:E ratio 0.3:1,84%
same,Percent inhibition of HLE,[5]; I:E ratio 0.4:1,85%
same,Percent inhibition of HLE,[5]; I:E ratio 0.5:1,84%
same,Percent inhibition of HLE,[5]; I:E ratio 0.6:1,100%
same,"Antifactor Xa activity, in words",factor Xa [6],little antifactor XA activity
same,Anti-factor Xa Activity (test time),factor Xa [6]; [9],42 s
same,Anti-factor Xa Activity (test time),factor Xa [6]; [10],33 s
same,Anti-factor Xa Activity (test time),factor Xa [6]; [11],32 s
same,Anti-factor Xa Activity (test time),factor Xa [6]; [12],32 s
same,"Ability to prolong the APTT, in words",human test serum,little ability to prolong the APTT
same,Time to Clot Formation,human test serum; [13],38 s
same,Time to Clot Formation,human test serum; [14],42 s
same,Alveolar hemorrhage,rats,produced no alveolar hemorrhage
dextran [non-sulfated dextran],"Inhibition of elastase, in words",[1],is not
heparin,USP Activity (anti-coagulant activity),blood coagulation [7]; Table VII,173.0 u/mg
same,USP anticoagulant activity,blood coagulation [7]; listed as porcine intestinal mucosal sodium heparin,173.0 units/mg
same,USP anticoagulant activity,blood coagulation [7]; listed as starting heparin,170 units/mg
same,anti-Xa activity,factor Xa [8],approximately 150 units/mg
same,Percent inhibition of Cathepsin G,cathepsin G; I:E ratio 0.1:1,31%
same,Percent inhibition of Cathepsin G,cathepsin G; I:E ratio 0.2:1,49%
same,Percent inhibition of Cathepsin G,cathepsin G; I:E ratio 0.4:1,67%
same,Percent inhibition of Cathepsin G,cathepsin G; I:E ratio 0.8:1,78%
same,Percent inhibition of Cathepsin G,cathepsin G; I:E ratio 1.0:1,76%
same,Percent inhibition of Cathepsin G,cathepsin G; I:E ratio 2.0:1,76%
same,"Inhibition of cathepsin G, in words",cathepsin G,significant inhibition of cathepsin G
same,"Inhibition of elastase induced injury in vivo, in words",[3],potent inhibitors of elastase induced injury in vivo
same,PMN in bronchoalveolar lavage fluid,[3],10.83 ×10^6 Cells
same,Protein in bronchoalveolar lavage fluid,[3],41.06 mg/mL
same,Total Hemoglobin in bronchoalveolar lavage fluid,[3],0.867 mg
same,Percent inhibition of HLE,[4]; I:E ratio 0.1:1,72%
same,Percent inhibition of HLE,[4]; I:E ratio 0.2:1,95%
same,Percent inhibition of HLE,[4]; I:E ratio 0.4:1,92%
same,Percent inhibition of HLE,[4]; I:E ratio 0.5:1,94%
same,Percent inhibition of HLE,[4]; I:E ratio 1.0:1,97%
same,Percent inhibition of HLE,[4]; I:E ratio 2.0:1,97%
same,"HLE inhibitory activity, in words",[5],significant inhibition of human leukocyte elastase; also recorded: significantly inhibited human leukocyte elastase (HLE) at I:E ratios of greater than 0.2
same,Percent inhibition of HLE,[5]; I:E ratio 0.2:1,72% and 51.000%
same,Percent inhibition of HLE,"[5]; I:E ratio 0.2:1, listed as H",81% and 79%
same,Percent inhibition of HLE,[5]; I:E ratio 0.3:1,83% and 91.000%
same,Percent inhibition of HLE,"[5]; I:E ratio 0.3:1, listed as H",88%
same,Percent inhibition of HLE,[5]; I:E ratio 0.4:1,88%
same,Percent inhibition of HLE,"[5]; I:E ratio 0.4:1, listed as H",87% and 90%
same,Percent inhibition of HLE,[5]; I:E ratio 0.5:1,93% and 97.000%
same,Percent inhibition of HLE,"[5]; I:E ratio 0.5:1, listed as H",87% and 91%
same,Percent inhibition of HLE,[5]; I:E ratio 0.6:1,99%
same,Percent inhibition of HLE,[5]; I:E ratio 1:1,98%
same,Percent inhibition of HLE,[5]; I:E ratio 1.5:1,98%
same,Percent inhibition of HLE,[5]; I:E ratio 2:1,98% and 99.000%
same,Anti-factor Xa Activity (test time),factor Xa [6]; [9],> 480 s
same,Anti-factor Xa Activity (test time),factor Xa [6]; [10],> 420 s
same,Anti-factor Xa Activity (test time),factor Xa [6]; [11],42 s
same,Anti-factor Xa Activity (test time),factor Xa [6]; [12],32 s
same,Time to Clot Formation,human test serum; [13],80 s
same,Time to Clot Formation,human test serum; [14],> 150 s
